Laboratory results: publication PMC6156508, “GA-Hecate antiviral properties on HCV whole cycle represent a new antiviral class and open the door for the development of broad spectrum antivirals” (Scientific Reports, 2018)
Where a SMILES comes first, the peptide text is derived from it. The star is where a group is joined. Galloyl = O=C(c1cc(O)c(O)c(O)c1)*

Legend:
[1] = tested on: HCVcc particles released from treated cells, naïve Huh-7.5 cells; assay: Infectivity assay of released particles (focus forming units); type: cell-based, hepatitis C virus
Description: Figure 6 GA-Hecate effect on HCV Release and infectivity. (A) HCV-infected Huh-7.5 cells were treated for 24 h with GA-Hecate. RNA was isolated and summited to qPCR for HCV 5′ UTR. Intracellular HCV expression was normalized by GAPDH, and extracellular HCV expression was calculated by absolute quantification. The difference between the intra and extracellular RNA expression represents the HCV release. Bars represent triplicate samples of three independent assays. Naringenin (200 μM) was used as a positive control of HCV release inhibition and water was a negative control of HCV release inhibition. ^aP < 0.001 vs Control (−), intracellular. ^bP < 0.001 vs Control (−), extracellular. F = 22.58, df (row factor) = 4. (B) Infectivity. HCV-infected Huh-7.5 cells were treated for 24 h with GA-Hecate, and then the supernatant was collected and used to infect naïve Huh-7.5 cells. The capacity of HCVcc particles to generate a new infection after GA-Hecate treatment is represented by the bars. […]
To assess the effect of GA-Hecate on HCV virion infectivity, a similar process to release/assembly was done and the supernatant (extracellular content) was collected and used to infect naïve Huh-7.5 cells. HCV infectivity was evaluated by the focus forming units assay, following an indirect immunofluorescence (IFI) assay for HCV NS5A as previously described by Batista et al.[35].

[2] = Permeabilization of LUVs, carboxyfluorescein release (viral envelope/cell membrane mimetic); conditions: POPC:POPS 9:1
Text: Figure 8 Permeabilization of LUVs. (A) Percentage of carboxyfluorescein release in POPC:POPS (9:1) Post addition of LUVs at different concentrations of Hecate and GA-Hecate. (B) Percentage of carboxyfluorescein release results in POPC:Cholesterol (9:1) LUVs after the addition of different concentrations of Hecate and GA-Hecate. The bars indicate SD.
Phosphatidylcholine:Cholesterol (POPC:Cholesterol - 9:1; m:m) and phosphatidylcholine:phosphatidylserine (POPC:POPS - 9:1; m:m) vesicles, which mimic lipid droplets and the virus envelope, respectively, were prepared at a concentration of 15 mmol·L^−1. Each mixture was submitted to lipid solubilization in chloroform/methanol (4:1; v:v) and subsequent evaporation by nitrogen gas flow, resulting in the formation of a lipid film. The product evaporated using a vacuum procedure for complete removal of the solvents and then a solution containing the fluorophore carboxyfluorescein (CF; 50 mM) was added. The mixture was warmed up to 60 °C, sonicated and agitated for equal periods for 10 min to allow for the formation of vesicles encapsulated with CF. Following this, the mixture was processed in an extruder machine (Avanti Polar Lipids) to obtain large unilamellar vesicles. The obtained solution was then applied to a size exclusion column with Sephadex G20 resin for separation of the unencapsulated CF. […]

[3] = tested on: J6/JFH-1-infected Huh-7.5 cells; assay: Necrosis analysis (propidium iodide staining); type: cell-based, human
Description: Apoptosis and Necrosis analysis
The ability of GA-Hecate inducing cell death by necrosis and apoptosis was assessed in 48 and 72h post-treatment (p.t) at concentrations: 1.25; 2.5; 5; 10; 20 and 40 μM. For necrosis evaluation, cells were stained using Propidium Iodide at […], which was incubated with the cells 15 minutes prior fixation. Subsequently, cells were fixed using paraformaldehyde 4% in PBS (PFA 4%) for 15 minutes and nuclei stained using DAPI 1 μg/mL for 5 minutes. For apoptosis evaluation, cells were fixed using PFA 4% during 15 minutes, permeabilized using Triton X- 100 (Sigma) 0.1% in PBS and stained using anti-Active Caspase 3 antibody (host: Rabbit) (1:200 in BSA 1% in PBS) (Abcam 13847) for 2h. Then cells were rinsed using PBS and stained using anti-rabbit AlexaFluor 594 (1:500 in BSA 1% PBS) (Thermo Scientific A21207) during 2h. Nuclei were stained using DAPI for 5 minutes. For both assays, cells were counted in 5 randomly chosen fields in duplicate. […]
Figure S2. Cell death mechanisms triggered by GA-Hecate 48h post-treatment in […]
J6/JFH-1- infected Huh-7.5 cells. […]
B) Necrosis assessment.
Necrotic cells were stained using Propidium iodide […], which is able to cross only damaged membranes and reaches the nucleus. PI is represented in red and cell nuclei were counterstained using DAPI (blue). Bars represents the average of 5 fields in duplicate. Ns: non statistically significant. *** Pvalue< 0.001vs 0.00 µM […]
Figure S3. Cell death mechanisms triggered by GA-Hecate 72h post-treatment in […]

Compound: CC(C)C[C@H](NC(=O)[C@H](C)NC(=O)[C@H](CCCCN)NC(=O)[C@H](CCCCN)NC(=O)[C@H](CC(C)C)NC(=O)[C@H](C)NC(=O)[C@H](CCCCN)NC(=O)[C@H](CCCCN)NC(=O)[C@H](CC(C)C)NC(=O)[C@H](CCCCN)NC(=O)[C@H](CCCCN)NC(=O)[C@H](CC(C)C)NC(=O)[C@H](C)NC(=O)[C@H](CCCCN)NC(=O)[C@H](CCCCN)NC(=O)[C@H](CC(C)C)NC(=O)[C@H](C)NC(=O)[C@H](CCCCN)NC(=O)[C@H](CC(C)C)NC(=O)[C@H](C)NC(=O)[C@H](CC(C)C)NC(=O)[C@H](C)NC(=O)[C@H](Cc1ccccc1)NC(=O)c1cc(O)c(O)c(O)c1)C(N)=O [GA-Hecate] (Galloyl-FALALKALKKALKKLKKALKKAL-NH2)
- infection inhibition by released particles (infectivity) ([1]; 20 μM, supernatant of cells treated 24 h on naïve Huh-7.5): approximately 100%
- share of released HCV able to generate a new infection ([1]; supernatant of GA-Hecate-treated cells): less than 1%
- interaction capacity relative to Hecate (fold lower) [2]: 2- to 3 fold
- permeabilization of LUVs (carboxyfluorescein release) ([2]; peptide 0.1 μM, 1% Triton = 100%, once in triplicate): ~20%
- necrosis ([3]; 20 μM, over the time (48 and 72 h)): about 20%
- necrosis ([3]; 40 μM, 48h p.t., propidium iodide): 50%
- necrosis ([3]; 40 μM, 72h p.t., propidium iodide): 10%
